Legend:
Type in all cases: in vivo
Settings in all cases: evaluated after 13 days
Zea mays (ZEAMX) [1] = experiment: Post-emergence Test, Zea mays (ZEAMX); parameters: key to percentage damage caused to the plant, ZEAMX (five-point scale): 5=81-100%, 4=61-80%, 3=41-60%, 2=21-40%, 1=0-20% damage
In short: (§1)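 Scores are percentage plant damage on a 1–5 scale (1=0-20%, 2=21-40%, 3=41-60%, 4=61-80%, 5=81-100%), read 13 days after treatment. Pots received a spray at 1000 g/ha unless otherwise stated, formulated in acetone/water (50:50) containing 0.5% Tween 20.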

[2] = tested on: Amaranthus retoflexus (AMARE); experiment: Pre-emergence Test, Amaranthus retoflexus (AMARE)
Setaria faberi (SETFA) [3] = experiment: Pre-emergence Test, Setaria faberi (SETFA)
Zea mays (ZEAMX) [4] = experiment: Pre-emergence Test, Zea mays (ZEAMX)
[5] = tested on: Echinochloa crus-galli (ECHCG); experiment: Post-emergence Test, Echinochloa crus-galli (ECHCG); parameters: key to percentage damage caused to the plant, ECHCG (five-point scale): 5=81-100%, 4=61-80%, 3=41-60%, 2=21-40%, 1=0-20% damage
In short: as §1

Setaria faberi (SETFA) [6] = experiment: Post-emergence Test, Setaria faberi (SETFA); parameters: key to percentage damage caused to the plant, SETFA (five-point scale): 5=81-100%, 4=61-80%, 3=41-60%, 2=21-40%, 1=0-20% damage
In short: as §1

[7] = tested on: Ipomoea hederacea (IPOHE); experiment: Pre-emergence Test, Ipomoea hederacea (IPOHE)
[8] = tested on: Amaranthus palmeri (AMAPA); experiment: Pre-emergence Test, Amaranthus palmeri (AMAPA)
[9] = tested on: Amaranthus palmeri (AMAPA); experiment: Post-emergence Test, Amaranthus palmeri (AMAPA); parameters: key: 5=81-100%, 4=61-80%, 3=41-60%, 2=21-40%, 1=0-20% damage
In short: as §1

[10] = tested on: Ipomoea hederacea (IPOHE); experiment: Post-emergence Test, Ipomoea hederacea (IPOHE); parameters: key to percentage damage caused to the plant, IPOHE (five-point scale): 5=81-100%, 4=61-80%, 3=41-60%, 2=21-40%, 1=0-20% damage
In short: as §1

[11] = tested on: Echinochloa crus-galli (ECHCG); experiment: Pre-emergence Test, Echinochloa crus-galli (ECHCG)
[12] = tested on: Amaranthus retoflexus (AMARE); experiment: Post-emergence Test, Amaranthus retoflexus (AMARE); parameters: key to percentage damage caused to the plant, AMARE (five-point scale): 5=81-100%, 4=61-80%, 3=41-60%, 2=21-40%, 1=0-20% damage
In short: as §1

Row | Structure (SMILES) | percentage damage caused to the plant, ZEAMX (five-point scale) (Zea mays (ZEAMX) [1]; 250 g/Ha) | percentage damage caused to the plant, ZEAMX (five-point scale) (Zea mays (ZEAMX) [1]; 1000 g/ha) | Pre-emergence Test AMARE, percentage damage caused to the plant (five-point scale) ([2]; 1000 g/ha) | Pre-emergence Test SETFA, percentage damage caused to the plant (five-point scale) (Setaria faberi (SETFA) [3]; 1000 g/ha) | Pre-emergence Test ZEAMX, percentage damage caused to the plant (five-point scale) (Zea mays (ZEAMX) [4]; 1000 g/ha) | percentage damage caused to the plant, ECHCG (five-point scale) ([5]; 250 g/Ha) | percentage damage caused to the plant, ECHCG (five-point scale) ([5]; 1000 g/ha) | percentage damage caused to the plant, SETFA (five-point scale) (Setaria faberi (SETFA) [6]; 250 g/Ha) | percentage damage caused to the plant, SETFA (five-point scale) (Setaria faberi (SETFA) [6]; 1000 g/ha) | Pre-emergence Test IPOHE, percentage damage caused to the plant (five-point scale) ([7]; 1000 g/ha) | Pre-emergence Test AMAPA, percentage damage caused to the plant (five-point scale) ([8]; 1000 g/ha) | percentage damage caused to the plant, AMAPA (five-point scale) ([9]; 250 g/Ha) | percentage damage caused to the plant, AMAPA (five-point scale) ([9]; 1000 g/ha) | percentage damage caused to the plant, IPOHE (five-point scale) ([10]; 250 g/Ha) | percentage damage caused to the plant, IPOHE (five-point scale) ([10]; 1000 g/ha) | Pre-emergence Test ECHCG, percentage damage caused to the plant (five-point scale) ([11]; 1000 g/ha) | percentage damage caused to the plant, AMARE (five-point scale) ([12]; 250 g/Ha) | percentage damage caused to the plant, AMARE (five-point scale) ([12]; 1000 g/ha) | Pre-emergence Test AMARE, percentage damage caused to the plant (five-point scale) ([2]; 250 g/Ha (*)) | Pre-emergence Test SETFA, percentage damage caused to the plant (five-point scale) (Setaria faberi (SETFA) [3]; 250 g/Ha (*)) | other results
1 | CCn1c(Cn2nc(Cl)cc2C)cc(=O)c(C(=O)O)c1-c1ccc(Cl)c(Cl)c1 [Compound 15, 6-[(3-chloro-5-methyl-pyrazol-1-yl)methyl]-2-(3,4-dichlorophenyl)-1-ethyl-4-oxo-pyridine-3-carboxylic acid] | 2 (2=21-40%) | 3 (3=41-60%) | 2 (2=21-40%) | 4 (4=61-80%) | 2 (2=21-40%) | 4 (4=61-80%) | 4 (4=61-80%) | 3 (3=41-60%) | 4 (4=61-80%) | 3 (3=41-60%) | 5 (5=81-100%) | 5 (5=81-100%) | 5 (5=81-100%) | 3 (3=41-60%) | 5 (5=81-100%) | 4 (4=61-80%) | 5 (5=81-100%) | 3 (3=41-60%) |  |  | 
2 | CCn1c(Cn2cc(C(F)F)cn2)cc(=O)c(C(=O)O)c1-c1ccc(Cl)c(Cl)c1 [Compound 109, 2-(3,4-dichlorophenyl)-6-[[4-(difluoromethyl)pyrazol-1-yl]methyl]-1-ethyl-4-oxo-pyridine-3-carboxylic acid] | 1 (1=0-20%) | 3 (3=41-60%) | 0 | 5 (5=81-100%) | 0 | 3 (3=41-60%) | 4 (4=61-80%) | 1 (1=0-20%) | 4 (4=61-80%) | 4 (4=61-80%) | 0 | 0 | 3 (3=41-60%) | 2 (2=21-40%) | 3 (3=41-60%) | 5 (5=81-100%) | 0 | 1 (1=0-20%) | 0 | 2 (2=21-40%) | Pre-emergence Test ZEAMX, percentage damage caused to the plant (five-point scale) (Zea mays (ZEAMX) [4]; 250 g/Ha (*)): 0; Pre-emergence Test IPOHE, percentage damage caused to the plant (five-point scale) ([7]; 250 g/Ha (*)): 1 (1=0-20%); Pre-emergence Test AMAPA, percentage damage caused to the plant (five-point scale) ([8]; 250 g/Ha (*)): 0; Pre-emergence Test ECHCG, percentage damage caused to the plant (five-point scale) ([11]; 250 g/Ha (*)): 3 (3=41-60%)
3 | CCn1c(Cn2nc(Cl)cc2Cl)cc(=O)c(C(=O)O)c1-c1ccc(Cl)c(Cl)c1 [Compound 134, 2-(3,4-dichlorophenyl)-6-[(3,5-dichloropyrazol-1-yl)methyl]-1-ethyl-4-oxo-pyridine-3-carboxylic acid] | 2 (2=21-40%) | 3 (3=41-60%) | 2 (2=21-40%) | 5 (5=81-100%) | 4 (4=61-80%) | 3 (3=41-60%) | 4 (4=61-80%) | 4 (4=61-80%) | 4 (4=61-80%) | 4 (4=61-80%) | 4 (4=61-80%) | 1 (1=0-20%) | 4 (4=61-80%) | 4 (4=61-80%) | 3 (3=41-60%) | 5 (5=81-100%) | 2 (2=21-40%) | 4 (4=61-80%) | 1 (1=0-20%) | 5 (5=81-100%) | Pre-emergence Test ZEAMX, percentage damage caused to the plant (five-point scale) (Zea mays (ZEAMX) [4]; 250 g/Ha (*)): 0; Pre-emergence Test IPOHE, percentage damage caused to the plant (five-point scale) ([7]; 250 g/Ha (*)): 1 (1=0-20%); Pre-emergence Test AMAPA, percentage damage caused to the plant (five-point scale) ([8]; 250 g/Ha (*)): 2 (2=21-40%); Pre-emergence Test ECHCG, percentage damage caused to the plant (five-point scale) ([11]; 250 g/Ha (*)): 4 (4=61-80%)
4 | CCn1c(Cn2ccc(SC)n2)cc(=O)c(C(=O)O)c1-c1ccc(Cl)c(Cl)c1 [Compound 35, 2-(3,4-dichlorophenyl)-1-ethyl-6-[(3-methylsulfanylpyrazol-1-yl)methyl]-4-oxo-pyridine-3-carboxylic acid] | 2 (2=21-40%) | 3 (3=41-60%) | 1 (1=0-20%) | 4 (4=61-80%) | 5 (5=81-100%) | 3 (3=41-60%) | 4 (4=61-80%) | 4 (4=61-80%) | 4 (4=61-80%) | 4 (4=61-80%) | 2 (2=21-40%) | 1 (1=0-20%) | 1 (1=0-20%) | 4 (4=61-80%) | 2 (2=21-40%) | 5 (5=81-100%) |  | 3 (3=41-60%) |  |  | 
5 | COCCn1c(Cn2ccc(Cl)n2)cc(=O)c(C(=O)O)c1-c1ccc(Cl)c(Cl)c1 [Compound 171, 6-[(3-chloropyrazol-1-yl)methyl]-2-(3,4-dichlorophenyl)-1-(2-methoxyethyl)-4-oxo-pyridine-3-carboxylic acid] | 1 (1=0-20%) | 1 (1=0-20%) | 1 (1=0-20%) | 4 (4=61-80%) | 1 (1=0-20%) | 1 (1=0-20%) | 3 (3=41-60%) | 0 | 3 (3=41-60%) | 0 | 0 | 0 | 0 | 1 (1=0-20%) | 1 (1=0-20%) | 1 (1=0-20%) | 0 | 0 |  |  | 
